pIC50: −log10 of the molar value.
Tests used:
human Gal-1 (hGal-1) = assay: Competitive binding assay: binding of biotinylated hGal-1 to microplate-adsorbed asialofetuin (ASF); details: Activities on hGal-1; mean values of several measurements
In short: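 Spectrophotometric readout (streptavidin-peroxidase, ABTS) of biotinylated galectin retained on ASF-coated wells. Biotinylated hGal-1 or hGal-3, 300-1000 ng/mL, co-incubated with test compound 3 h at 4° C, then washed. Mean IC50 from repeat runs.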

human Gal-3 (hGal-3) = human Gal-3 (hGal-3) (Homo sapiens (Human), UniProt P17931); assay: Competitive binding assay: binding of biotinylated hGal-3 to microplate-adsorbed asialofetuin (ASF); details: Activity on hGal-3; mean values of several measurements
In short: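 Compounds in DMSO dilution series competed with 300-1000 ng/mL biotinylated hGal-3 for asialofetuin adsorbed on the plate (3 h, 4° C). Streptavidin-peroxidase at 80 ng/mL (1 h, 4° C) with ABTS gave a spectrophotometric read-out, and IC50 was reported as the mean of repeat runs.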

Chain of human Gal-3 (hGal-3) (P17931 whole entry): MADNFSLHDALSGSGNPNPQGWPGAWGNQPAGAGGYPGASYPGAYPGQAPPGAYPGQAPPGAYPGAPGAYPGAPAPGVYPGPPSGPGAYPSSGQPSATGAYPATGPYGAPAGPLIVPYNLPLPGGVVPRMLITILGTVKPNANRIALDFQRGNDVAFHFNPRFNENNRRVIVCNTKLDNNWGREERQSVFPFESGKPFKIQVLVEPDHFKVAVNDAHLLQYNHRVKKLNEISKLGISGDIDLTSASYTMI
Chain of human Gal-1 (hGal-1) (P09382 2-135 limits assumed): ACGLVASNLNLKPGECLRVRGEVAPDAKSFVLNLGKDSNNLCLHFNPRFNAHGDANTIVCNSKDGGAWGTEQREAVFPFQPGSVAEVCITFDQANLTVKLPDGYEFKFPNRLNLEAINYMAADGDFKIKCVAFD

SMILES | pIC50 (human Gal-1 (hGal-1)) | pIC50 (human Gal-3 (hGal-3))
CO[C@@H]1[C@@H](n2cc(-c3cc(F)c(F)c(F)c3)nn2)[C@@H](O)[C@@H](CO)O[C@@H]1Cc1cc(C2COC2)on1 [Ex 1.84] | 5.52 | 6.46
OC[C@H]1O[C@H](Cc2cc(C3CCN(c4ncco4)CC3)on2)[C@H](O)[C@@H](n2cc(-c3cc(F)c(F)c(F)c3)nn2)[C@H]1O [Ex 1.85] | 5.94 | 7.33
OC[C@H]1O[C@H](Cc2cc(C3CCN(c4nc5ccccc5s4)CC3)on2)[C@H](O)[C@@H](n2cc(-c3cc(F)c(F)c(F)c3)nn2)[C@H]1O [Ex 1.86] | < 4.00 | 7.05
OC[C@H]1O[C@H](Cc2cc(C3CCN(c4nccs4)CC3)on2)[C@H](O)[C@@H](n2cc(-c3cc(F)c(F)c(F)c3)nn2)[C@H]1O [Ex 1.87] | 5.71 | 7.10
COc1ccc(C2=NOC(C[C@@H]3O[C@H](CO)[C@H](O)[C@H](n4cc(-c5cc(F)c(F)c(F)c5)nn4)[C@H]3O)C2)cc1 (some centres unmarked) [Ex 1.88] | 4.65 | 5.21
CO[C@@H]1[C@@H](n2cc(-c3cc(F)c(F)c(F)c3)nn2)[C@@H](O)[C@@H](CO)O[C@@H]1C[C@H]1CC([C@@H]2CCN(C)C(=O)C2)=NO1 [Ex 1.89] | 5.39 | 6.00
CO[C@@H]1[C@@H](n2cc(-c3cc(F)c(F)c(F)c3)nn2)[C@@H](O)[C@@H](CO)O[C@@H]1Cc1cc(C2CCN(C)C(=O)C2)no1 (some centres unmarked) [Ex 1.90] | 5.75 | 6.59
CO[C@@H]1[C@@H](n2cc(-c3cc(F)c(F)c(F)c3)nn2)[C@@H](O)[C@@H](CO)O[C@@H]1C[C@H]1CC([C@@H]2CCNC(=O)C2)=NO1 [Ex 1.91] | 4.93 | 6.32
CO[C@@H]1[C@@H](n2cc(-c3cc(F)c(F)c(F)c3)nn2)[C@@H](O)[C@@H](CO)O[C@@H]1Cc1cc(C2CCNC(=O)C2)no1 (some centres unmarked) [Ex 1.92] | 5.31 | 6.59
CO[C@@H]1[C@@H](n2cc(-c3cc(F)c(F)c(F)c3)nn2)[C@@H](O)[C@@H](CO)O[C@@H]1C[C@H]1CC([C@H]2CNC(=O)C2)=NO1 [Ex 1.93] | 4.80 | 6.26
CO[C@@H]1[C@@H](n2cc(-c3cc(F)c(F)c(F)c3)nn2)[C@@H](O)[C@@H](CO)O[C@@H]1Cc1cc(C2CNC(=O)C2)no1 (some centres unmarked) [Ex 1.94] | 5.32 | 6.85
CC(C)(C)OC(=O)N1CCC(C2=NOC(C[C@H]3O[C@H](CO)[C@H](O)[C@H](n4cc(-c5cc(F)c(Cl)cc5F)nn4)[C@H]3O)C2)CC1 (some centres unmarked) [Ex 1.95] | 5.92 | 6.72
COc1ccc(F)cc1-c1cn([C@H]2[C@@H](O)[C@@H](CO)O[C@H](CC3CC(C4CCN(C(=O)OC(C)(C)C)CC4)=NO3)[C@@H]2O)nn1 (some centres unmarked) [Ex 1.96] | 5.06 | 5.76
Cc1ccc(-c2cn([C@H]3[C@@H](O)[C@@H](CO)O[C@H](CC4CC(C5CCN(C(=O)OC(C)(C)C)CC5)=NO4)[C@@H]3O)nn2)c(F)c1F (some centres unmarked) [Ex 1.97] | 5.49 | 7.51
CC(C)(C)OC(=O)N1CCC(C2=NOC(C[C@H]3O[C@H](CO)[C@H](O)[C@H](n4cc(-c5ccc6ncsc6c5)nn4)[C@H]3O)C2)CC1 (some centres unmarked) [Ex 1.98] | 5.74 | 5.81
Cc1cc(-c2cn([C@H]3[C@@H](O)[C@@H](CO)O[C@H](CC4CC(C5CCN(C(=O)OC(C)(C)C)CC5)=NO4)[C@@H]3O)nn2)ccc1F (some centres unmarked) [Ex 1.99] | 6.33 | 6.40
CC(C)(C)OC(=O)N1CCC(C2=NOC(C[C@H]3O[C@H](CO)[C@H](O)[C@H](n4cc(-c5ccc(C#N)c(F)c5)nn4)[C@H]3O)C2)CC1 (some centres unmarked) [Ex 1.100] | 5.31 | 6.19
CC(C)(C)OC(=O)N1CCC(C2=NOC(C[C@H]3O[C@H](CO)[C@H](O)[C@H](n4cc(-c5cc(F)c(Cl)c(F)c5)nn4)[C@H]3O)C2)CC1 (some centres unmarked) [Ex 1.101] | 5.39 | 6.74
CC(C)(C)OC(=O)N1CCC(C2=NOC(C[C@H]3O[C@H](CO)[C@H](O)[C@H](n4cc(-c5ccc(Cl)c(F)c5F)nn4)[C@H]3O)C2)CC1 (some centres unmarked) [Ex 1.102] | 5.63 | 7.09
CC(C)(C)OC(=O)N1CCC(C2=NOC(C[C@H]3O[C@H](CO)[C@H](O)[C@H](n4cc(-c5ccc(C(F)(F)F)c(F)c5)nn4)[C@H]3O)C2)CC1 (some centres unmarked) [Ex 1.103] | 5.01 | 6.35
CC(C)(C)OC(=O)N1CCC(C2=NOC(C[C@H]3O[C@H](CO)[C@H](O)[C@H](n4cc(-c5ccc(F)cn5)nn4)[C@H]3O)C2)CC1 (some centres unmarked) [Ex 1.104] | 6.35 | 5.74
CC(C)(C)OC(=O)N1CCC(C2=NOC(C[C@H]3O[C@H](CO)[C@H](O)[C@H](n4cc(-c5cc(Cl)ccc5Cl)nn4)[C@H]3O)C2)CC1 (some centres unmarked) [Ex 1.105] | 5.63 | 5.77
